Experimental data reported in patent publication US20050197350A1, “Novel quinoline, tetrahydroquinazoline, and pyrimidine derivatives and methods of treatment related to the use thereof” (TAISHO PHARMACEUTICAL CO., LTD., priority 2003, published 2005).
Counter-ions that a name gives are not always drawn. Like-named read-outs stand apart in the source and are kept apart here.

Molecular target: MCH receptor (Homo sapiens, UniProt Q99705)
Experiment: High throughput functional screening FLIPR/FDSS6000 (intracellular Ca2+ evoked by MCH)
Assay type: cell-based
Conditions: FLIPR/FDSS, antagonist activity vs 50 nM MCH
Outline: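 For antagonist testing, compound-treated cells (30 min, 37 °C) were stimulated with 50 nM MCH and intracellular Ca2+ followed by Fluo4 fluorescence on FLIPR/FDSS6000. Receptor was a constitutively active, non-endogenous MCH receptor; dye loading 4 μM Fluo4-AM, 1 h, 37 °C.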

[1] = class by percent of control at 10^−7 M or IC50, table after the classification, read-out: class
[2] = class by percent of control at 10^−7 M or IC50, read-out: class

Row | SMILES | IC50 [1] [nM] | also measured
1 | CNc1nc(N[C@H]2CC[C@@H](NC(=O)c3ccc(F)c(Cl)c3)CC2)ncc1C [Example 3386, 3-Chloro-4-fluoro-N-[cis-4-(5-methyl-4-methylamino-pyrimidin-2-ylamino)-cyclohexyl]-benzamide hydrochloride] | < 50 | 
2 | Cc1cnc(N[C@H]2CC[C@@H](C(=O)N[C@H](C)c3ccc(OC(F)(F)F)cc3)CC2)nc1N(C)C [Example 3303, cis-4-{[4-(dimethylamino)-5-methylpyrimidin-2-yl]amino}-N-{(1R)-1-[4-(trifluoromethoxy)phenyl]ethyl}-cyclohexanecarboxamide] |  | IC50 [2]: 50 to 200 nM
3 | Cc1cc(N[C@H]2CC[C@@H](NC(=O)c3ccc(F)c(Cl)c3)CC2)nc2ccccc12 [Example 3239, 3-Chloro-4-fluoro-N-[cis-4-(4-methyl-quinolin-2-ylamino)-cyclohexyl]-benzamide methanesulfonic acid] | < 50 | 
4 | Cc1cc(N[C@H]2CC[C@@H](NC(=O)c3ccc(Cl)c(Cl)c3)CC2)nc2ccccc12 [Example 3078, 3,4-Dichloro-N-[cis-4-(4-methyl-quinolin-2-ylamino)-cyclohexyl]-benzamide hydrochloride] | < 50 | 
5 | Cc1cnc(NC2CCC(C(=O)N[C@@H](C)c3cccc(C(F)(F)F)c3)CC2)nc1N(C)C (stereo partly drawn) [Example 3298, 4-{[4-(dimethylamino)-5-methylpyrimidin-2-yl]amino}-N-{(1S)-1-[3-(trifluoromethyl)phenyl]ethyl}cyclohexanecarboxamide] |  | IC50 [2]: < 50 nM
6 | Cc1cc(N[C@H]2CC[C@@H](NC(=O)c3ccncc3)CC2)nc2ccccc12 [Example 3183, N-[cis-4-(4-Methyl-quinolin-2-ylamino)-cyclohexyl]-isonicotinamide hydrochloride] | > 200 | 
7 | Cc1cccc(C(=O)N[C@H]2CC[C@@H](Nc3ccc4ccccc4n3)CC2)c1 [Example 3033, 3-Methyl-N-[cis-4-(quinolin-2-ylamino)-cyclohexyl]-benzamide hydrochloride] | < 50 | 
8 | COc1cc(OC)cc(C(=O)N[C@H]2CC[C@@H](Nc3nc4c(c(N(C)C)n3)CCCC4)CC2)c1 [Example 3110, N-[cis-4-(4-Dimethylamino-5,6,7,8-tetrahydro-quinazolin-2-ylamino)-cyclohexyl]-3,5-dimethoxy-benzamide hydrochloride] | < 50 | 
9 | COc1ccc(Oc2ncccc2C(=O)N[C@H]2CC[C@@H](Nc3ccc4ccccc4n3)CC2)cc1 [Example 3059, 2-(4-Methoxy-phenoxy)-N-[cis-4-(quinolin-2-ylamino)-cyclohexyl]-nicotinamide hydrochloride] | < 50 | 
10 | CN(C)c1nc(N[C@H]2CC[C@@H](CNC(=O)c3cccnc3Oc3ccccc3)CC2)nc2c1CCCC2 [Example 3113, N-[cis-4-(4-Dimethylamino-5,6,7,8-tetrahydro-quinazolin-2-ylamino)-cyclohexylmethyl]-2-phenoxy-nicotinamide hydrochloride] | > 200 | 
11 | COc1cccc(NC(=O)N[C@H]2CC[C@@H](Nc3ncc(C)c(N(C)C)n3)CC2)c1 [Example 3322, N-(cis-4-{[4-(dimethylamino)-5-methylpyrimidin-2-yl]amino}cyclohexyl)-N′-(3-methoxyphenyl)urea] |  | IC50 [2]: > 200 nM
12 | Cc1cc(N(C)C)nc(N[C@H]2CC[C@@H](NC(=O)c3cccnc3S(=O)(=O)c3ccc(F)cc3)CC2)n1 [Example 3368, N-(cis-4-{[4-(dimethylamino)-6-methylpyrimidin-2-yl]amino}cyclohexyl)-2-[(4-fluorophenyl)sulfonyl]nicotinamide] |  | IC50 [2]: 50 to 200 nM
13 | Cc1cc(N[C@H]2CC[C@@H](NC(=O)C3c4ccccc4Oc4ccccc43)CC2)nc2ccccc12 [Example 3082, 9H-Xanthene-9-carboxylic acid-[cis-4-(4-methyl-quinolin-2-ylamino)-cyclohexyl]-amide hydrochloride] | < 50 | 
14 | O=C(N[C@H]1CC[C@@H](Nc2ccc3ccccc3n2)CC1)c1ccc(Cl)c(Cl)c1 [Example 3040, 3,4-Dichloro-N-[cis-4-(quinolin-2-ylamino)-cyclohexyl]-benzamide hydrochloride] | < 50 | 
15 | CN(C)c1nc(N[C@H]2CC[C@@H](NC(=O)c3ccc(F)c(Cl)c3)CC2)nc2c1CCCC2 [Example 3108, 3-Chloro-N-[cis-4-(4-dimethylamino-5,6,7,8-tetrahydro-quinazolin-2-ylamino)-cyclohexyl]-4-fluoro-benzamide hydrochloride] | < 50 | 
16 | Cc1ccc(S(=O)(=O)c2ncccc2C(=O)N[C@H]2CC[C@@H](Nc3ncc(C)c(N(C)C)n3)CC2)cc1 [Example 3288, N-(cis-4-{[4-(dimethylamino)-5-methylpyrimidin-2-yl]amino}cyclohexyl)-2-[(4-methylphenyl)sulfonyl]nicotinamide] |  | IC50 [2]: 50 to 200 nM
17 | Cc1cc(N(C)C)nc(N[C@H]2CC[C@@H](NC(=O)c3cc(F)c(F)c(F)c3)CC2)n1 [Example 3385, N-[cis-4-(4-Dimethylamino-6-methyl-pyrimidin-2-ylamino)-cyclohexyl]-3,4,5-trifluoro-benzamide hydrochloride] | < 50 | 
18 | Cc1cc(N(C)C)nc(N[C@H]2CC[C@@H](NC(=O)c3ccc(F)c(Cl)c3)CC2)n1 [Example 3230, 3-Chloro-N-[cis-4-(4-dimethylamino-6-methyl-pyrimidin-2-ylamino)-cyclohexyl]-4-fluoro-benzamide hydrochloride] | < 50 | 
19 | CN(C)c1cc(N[C@H]2CC[C@@H](CNCc3ccc(Br)cc3OC(F)(F)F)CC2)nc2ccccc12 [Example 7, N^2-{cis-4-[(4-Bromo-2-trifluoromethoxy-benzyl)amino-methyl]-cyclohexyl}-N^4,N^4-dimethyl-quinoline-2,4-diamine dihydrochloride] | < 50 | IC50 (representative examples, read-out: IC50): 11 nM
20 | Cc1cc(N[C@H]2CC[C@@H](NC(=O)c3ccc(Cl)c(F)c3)CC2)nc2ccccc12 [Example 3168, 4-Chloro-3-fluoro-N-[cis-4-(4-methyl-quinolin-2-ylamino)-cyclohexyl]-benzamide hydrochloride] | < 50 | 
21 | Cc1cnc(NC2CCC(C(=O)N[C@H](C)c3cccc(C(F)(F)F)c3)CC2)nc1N(C)C (stereo partly drawn) [Example 3299, 4-{[4-(dimethylamino)-5-methylpyrimidin-2-yl]amino}-N-{(1R)-1-[3-(trifluoromethyl)phenyl]ethyl}cyclohexanecarboxamide] |  | IC50 [2]: < 50 nM

Now from value to molecule, other results behind:

Row | IC50 [1] [nM] | SMILES | also measured
22 | < 50 | CN(C)c1ccnc(N[C@H]2CC[C@@H](NC(=O)c3csc([N+](=O)[O-])c3)CC2)n1 [Example 3198, 5-Nitro-thiophene-3-carboxylic acid [cis-4-(4-dimethylamino-pyrimidine-2-ylamino)-cyclohexyl]-amide hydrochloride] | 
23 | 50 to 200 | CN(C)c1nc(N[C@H]2CC[C@@H](NC(=O)c3cccnc3Oc3ccccc3)CC2)ncc1Br [Example 3141, N-[cis-4-(5-Bromo-4-dimethylamino-pyrimidin-2-ylamino)-cyclohexyl]-2-phenoxy-nicotinamide hydrochloride] | 
24 | < 50 | CN(C)c1ccnc(N[C@H]2CC[C@@H](NC(=O)COc3ccc(Cl)c(Cl)c3)CC2)n1 [Example 3393, 2-(3,4-Dichloro-phenoxy)-N-[cis-4-(4-dimethylamino-pyrimidin-2-ylamino)-cyclohexyl]-acetamide hydrochloride] | 
25 | < 50 | Cc1cccc(Oc2ncccc2C(=O)N[C@H]2CC[C@@H](Nc3ccc4ccccc4n3)CC2)c1 [Example 3061, N-[cis-4-(Quinolin-2-ylamino)-cyclohexyl]-2-m-tolyloxy-nicotinamide hydrochloride] | 
